Where “and” joins values, the source holds several entries; their conditions need not be identical. Equal values may be shown once.
Tests used:
Plasmepsin V (PmV) = biological target: T1, Plasmepsin V (PmV) (Plasmodium falciparum, UniProt Q8I6Z5); assay: PmV inhibition, fluorimetric PExEl cleavage assay; format: biochemical; conditions: for IC50: 3 μM HRPII-PExEl substrate, averages of not less than three inhibition curves, read-out: IC50
T1 construct: PmV was purified directly from parasites; made in house
Description: Saponin was added to culture to a final 0.05%; parasites were recovered via centrifugation at 4°C after 5 min of incubation on ice; parasite pellets were then washed twice in cold PBS and either immediately lysed or stored at -80°C until lysis. Parasites were lysed via three pulses of ultra-sonication of 10 sec duration, in PBS containing 0.5% Triton-X100 (TX-100). […] Quick washes of the resin were performed either in batches, or over columns, to remove unbound cellular material (four with ice-cold 0.5% TX-100 in PBS and a final one with cold PBS). Resin-bound PmV was stored in PBS at 4°C and used within 2–3 weeks, larger batches had Glycerol added to them, up to 10%, and were stored at -20°C for up to 5 months. […] Quality and purity of PmV batches were routinely confirmed by protein electrophoresis. Quantification of PmV was performed via densitometry analysis of stained protein SDS-PAGE gels relative to BSA standard curves.
PExEl cleavage activity was monitored by fluorimetric measurement of PExEl cleavage, as previously reported. […] PmV activity was performed at 37°C in 50 mM Tris-Maleate, pH 6.5, 50 mM NaCl, 0.05% TX-100, 2 mM DTT. Assays were routinely conducted in triplicate. Bead-bound enzyme was added to the reaction using ‘end-cut’ micropipette tips in order to facilitate sampling the suspension.
Inhibitory activities were measured in the presence of a substrate concentration of 3 μM by serial dilution of each compound in triplicates. […] Titration curves of the inhibitors were routinely composed of eleven points from 10 μM to 0.1 pM. PmV concentration was kept in the order of low picomolar (≤10 pM). […] Analysis of the half inhibitory activity (IC50) was performed by sigmoidal interpolation of the starting velocities of the hydrolytic reactions for each condition. Starting velocities were calculated on the initial linear range of the product progression curves. […] Data are presented with error bars indicating the standard deviation of three independent activity curves.

PmV = conditions: different substrate at […], different buffer; ref [19], [20]; read-out: IC50, published value; cited from earlier work
[1] = test system: Plasmodium falciparum strain 3D7; assay: Parasite growth inhibition by flow cytometry, strain 3D7; format: cell-based
[2] = test system: HRPII-GFP PExEl-dependent secretion; assay: In vivo inhibition of PExEl export, live microscopy of HRPII-GFP clone; format: cell-based, Plasmodium falciparum; conditions: 20 μM, 27 h, ring to trophozoite stages
Description: Parasites were imaged live or fixed. Fixation in 4% formaldehyde and 0.0075% glutaraldehyde, cell permeabilization, antibody incubation, and mounting were as previously described. Before imaging of HRPII-GFP clone, we treated with Compound 29 highly synchronized parasites at late trophozoite stage with inhibitors for 27 h, and then analyzed the distribution of the exported probe in newly invaded red blood cells. Images were acquired using a fluorescence microscope (BX51 Olympus). Live parasites were counter-stained using the nuclear dye Hoechst 33342 (Life Technologies—Molecular Probes).
Fig 16 Inhibition results in impairment of the PExEl secretion. (A) Microscopy analysis of the distribution of the PExEl-export fluorescent probe. Live parasites expressing HRPII-GFP, used as a probe for PExEl secretion, are imaged in the presence of Hoechst nuclear staining. Bright field (grey scale), nuclei (blue channel), HRPII-GFP (green) and the merged image of the fluorescent channels are presented from left to right. (panel a) untreated culture; (b) mock DMSO-treated culture; (c-f) culture treated with 20 μM 29 solubilized in DMSO (c) mid ring, (d) late-ring, (e) early-trophozoite, (f) late-trophozoite. Bar is 2 μm. […]

HRPII PExEl processing = assay: HRPII PExEl processing, western blot; format: cell-based, Plasmodium falciparum; conditions: 20 μM, about 27 h, 3D7
Description: Protein analyses to detect PmV, HRPII and BiP via stained protein gels and blots, densitometry, antibody detection or HRP-conjugated Streptavidin, were conducted as previously described.
Fig 16 Inhibition results in impairment of the PExEl secretion. (A) Microscopy analysis of the distribution of the PExEl-export fluorescent probe. Live parasites expressing HRPII-GFP, used as a probe for PExEl secretion, are imaged in the presence of Hoechst nuclear staining. Bright field (grey scale), nuclei (blue channel), HRPII-GFP (green) and the merged image of the fluorescent channels are presented from left to right. (panel a) untreated culture; (b) mock DMSO-treated culture; (c-f) culture treated with 20 μM 29 solubilized in DMSO (c) mid ring, (d) late-ring, (e) early-trophozoite, (f) late-trophozoite. Bar is 2 μm. Impairment of HRPII-GFP PExEl-dependent export is observed in these representative images of live parasites and the GFP signal appears concentrated in regions of immediate proximity to the nuclei. […] (B) HRPII PExEl processing is inhibited by Compound 29. Western blot analysis of HRPII contained in parasites after saponin treatment. Arrows show the pro-form (p) and the mature (m) protein HRPII. 3D7 culture was incubated as described in Materials and Methods with 20 μM Compound 29 for about 27 h.

[3] = pH 7.4
[4] = test system: clone #3 (Overexpressing PmV); assay: Parasite growth inhibition, clone #3 (overexpressing PmV-GFP)
Description: (§1) Growth impairment of parasites in culture was tested as follows. Asynchronous erythrocyte cultures of Plasmodium falciparum strain 3D7 were initiated at a starting parasitemia of 0.2–0.5% in the presence of titration curves of the PmV inhibitors generated in this work. […] Cultures, live or fixed, were analyzed at day 3 and/or 4 after initiation, approximately~ 2 cell cycles of 3D7 strain. Parasitemia was measured by flow cytometry analysis of parasitized cells stained with 0.4 μg/ml Acridine Orange or 1 μM Topro 3 (Life Technology Invitrogen), using BD Fortessa or FACS Calibur instruments.
(§2) DC6 clone expresses PmV-GFP chimera under regulation of the native promoter [15]; G6 clone, the PmV-GFP-DD chimera under regulation of the native promoter (this paper) and #3 clone (episomally expressing PmV-GFP chimera under Hsp86-5', a strong and constitutive promoter) [15]. […] (B) Growth inhibition curves of parasites expressing different levels of PmV: 3D7 (blue dots and line), DC6 (green dots and line), G6 (PmV knock-down) (red dots and line) and #3 (Overexpressing PmV) (purple dots and line) were analysed in parallel. Growth inhibition was measured in triplicates. Dots represent actual data, lines the sigmoidal fitting obtained by non-linear regression analysis. […] Error bars show the standard deviation of the data.

clone DC6 = assay: Parasite growth inhibition, clone DC6 (PmV-GFP, native promoter)
Description: as §1, §2

[5] = test system: clone G6 (PmV knock-down); assay: Parasite growth inhibition, clone G6 (PmV-GFP-DD, PmV knock-down); conditions: clone G6, absence of Shield-1
Description: as §1
(B) Growth inhibition curves of parasites expressing different levels of PmV: 3D7 (blue dots and line), DC6 (green dots and line), G6 (PmV knock-down) (red dots and line) and #3 (Overexpressing PmV) (purple dots and line) were analysed in parallel. Growth inhibition was measured in triplicates. Dots represent actual data, lines the sigmoidal fitting obtained by non-linear regression analysis. […] Error bars show the standard deviation of the data.

T1 sequence (Q8I6Z5 whole entry): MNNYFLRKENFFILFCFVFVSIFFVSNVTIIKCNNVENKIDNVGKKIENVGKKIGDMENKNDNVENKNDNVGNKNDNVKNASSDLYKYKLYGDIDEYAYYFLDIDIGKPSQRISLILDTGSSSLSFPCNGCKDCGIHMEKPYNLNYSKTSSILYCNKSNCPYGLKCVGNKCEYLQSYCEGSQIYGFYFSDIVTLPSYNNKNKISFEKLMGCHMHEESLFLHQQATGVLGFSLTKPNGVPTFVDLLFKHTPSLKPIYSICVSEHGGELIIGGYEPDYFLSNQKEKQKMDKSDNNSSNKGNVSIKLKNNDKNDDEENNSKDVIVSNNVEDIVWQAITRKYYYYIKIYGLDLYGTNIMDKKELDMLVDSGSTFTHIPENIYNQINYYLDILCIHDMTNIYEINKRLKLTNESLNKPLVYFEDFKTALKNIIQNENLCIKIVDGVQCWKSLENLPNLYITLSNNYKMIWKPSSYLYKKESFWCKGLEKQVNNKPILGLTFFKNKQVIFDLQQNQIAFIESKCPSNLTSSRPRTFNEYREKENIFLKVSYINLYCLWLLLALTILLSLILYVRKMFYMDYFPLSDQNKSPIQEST

| Compound | IC50 (Plasmepsin V (PmV)) [µM] | IC50 (PmV) [µM] | IC50 increase compared to Compound 13a (Plasmepsin V (PmV)) [fold] | Ki (Plasmepsin V (PmV)) [µM] | LD50 growth inhibition ([1]; asynchronous 3D7 cultures, about 4 days, 0.195–200 μM, flow cytometry) | IC20 ([1]; strain 3D7, parental line) [µM] | IC50 ([1]; strain 3D7, parental line) [µM] | IC80 ([1]; strain 3D7, parental line) [µM] | effect on HRPII-GFP PExEl-dependent secretion [2] | effect on natural processing of HRPII (HRPII PExEl processing) | logD [3] | IC20 [4] [µM] | IC50 [4] [µM] | IC80 [4] [µM] | IC20 (clone DC6) [µM] | IC50 (clone DC6) [µM] | IC80 (clone DC6) [µM] | IC20 [5] [µM] | IC50 [5] [µM] | IC80 [5] [µM] |
| --- | --- | --- | --- | --- | --- | --- | --- | --- | --- | --- | --- | --- | --- | --- | --- | --- | --- | --- | --- | --- |
| CC(C)C[C@H](NC(=O)[C@@H](NC(=O)[C@H](CCCNC(=N)N)NS(=O)(=O)Cc1ccccc1)C(C)C)[C@@H](O)CC(=O)NCCc1ccccc1 [WEHI916, reference compound] | 0.0324 | 0.019 to 0.02 |  |  |  |  |  |  |  |  |  |  |  |  |  |  |  |  |  |  |
| CC(C)C[C@H](NC(=O)[C@@H](N)CCCCN)C(=O)N[C@@H](CC(C)C)C(O)CN[C@@H](C)C(=O)N[C@@H](CCC(=O)O)C(N)=O (mixture of isomers) [Compound 29] | 1.97 |  | 8 | 1.06 | ~ 15 μM and 15.2 μM | 14 | 17.9 | 22.7 | impairment of HRPII-GFP PExEl-dependent secretion was observed | inhibited | -5.99 | 25.1 | 27.5 | 30.1 | 12.8 | 18.5 | 27.1 | 7.68 | 12.5 | 20.2 |

— PMC4643876, “Picomolar Inhibition of Plasmepsin V, an Essential Malaria Protease, Achieved Exploiting the Prime Region” (PLoS ONE, 2015)
